Our source for the IC50, EC50 and AC50 values is ChEMBL document CHEMBL1201862, “PubChem BioAssay data set” (2004).

The source made the active and inactive calls.

The term IC50 denotes the concentration at which inhibition is half-maximal. By EC50 is commonly meant the concentration giving half of the maximal effect. The term AC50 denotes the concentration at which the activity in the assay is half-maximal.

Assay [1] concerns the target Photoreceptor-specific nuclear receptor (Homo sapiens, UniProt Q9Y5X4). The format is functional.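 Further: potency for compounds that break the NR2E3 corepressor complex and count as activators.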
Assay [2] deals with Peroxisome proliferator-activated receptor gamma/Nuclear receptor corepressor 2 (Homo sapiens, UniProt P37231+Q9Y618). The format is functional.
Peroxisome proliferator-activated receptor gamma/Nuclear receptor corepressor 2, sequence (P37231 whole entry): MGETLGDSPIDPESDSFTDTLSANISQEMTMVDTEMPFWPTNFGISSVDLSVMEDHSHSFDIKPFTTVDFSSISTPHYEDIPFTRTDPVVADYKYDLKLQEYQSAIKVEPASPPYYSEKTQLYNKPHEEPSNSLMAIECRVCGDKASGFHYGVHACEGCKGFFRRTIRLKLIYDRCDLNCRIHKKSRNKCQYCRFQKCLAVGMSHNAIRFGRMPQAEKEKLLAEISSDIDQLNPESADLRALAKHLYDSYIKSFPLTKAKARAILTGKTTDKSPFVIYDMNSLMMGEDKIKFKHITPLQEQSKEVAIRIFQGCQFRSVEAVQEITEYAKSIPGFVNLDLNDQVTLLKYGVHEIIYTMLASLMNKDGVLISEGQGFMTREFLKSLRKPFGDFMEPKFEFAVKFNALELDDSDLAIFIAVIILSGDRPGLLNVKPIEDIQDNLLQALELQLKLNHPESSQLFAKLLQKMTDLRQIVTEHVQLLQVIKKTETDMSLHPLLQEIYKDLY
Peroxisome proliferator-activated receptor gamma/Nuclear receptor corepressor 2, sequence (Q9Y618 whole entry): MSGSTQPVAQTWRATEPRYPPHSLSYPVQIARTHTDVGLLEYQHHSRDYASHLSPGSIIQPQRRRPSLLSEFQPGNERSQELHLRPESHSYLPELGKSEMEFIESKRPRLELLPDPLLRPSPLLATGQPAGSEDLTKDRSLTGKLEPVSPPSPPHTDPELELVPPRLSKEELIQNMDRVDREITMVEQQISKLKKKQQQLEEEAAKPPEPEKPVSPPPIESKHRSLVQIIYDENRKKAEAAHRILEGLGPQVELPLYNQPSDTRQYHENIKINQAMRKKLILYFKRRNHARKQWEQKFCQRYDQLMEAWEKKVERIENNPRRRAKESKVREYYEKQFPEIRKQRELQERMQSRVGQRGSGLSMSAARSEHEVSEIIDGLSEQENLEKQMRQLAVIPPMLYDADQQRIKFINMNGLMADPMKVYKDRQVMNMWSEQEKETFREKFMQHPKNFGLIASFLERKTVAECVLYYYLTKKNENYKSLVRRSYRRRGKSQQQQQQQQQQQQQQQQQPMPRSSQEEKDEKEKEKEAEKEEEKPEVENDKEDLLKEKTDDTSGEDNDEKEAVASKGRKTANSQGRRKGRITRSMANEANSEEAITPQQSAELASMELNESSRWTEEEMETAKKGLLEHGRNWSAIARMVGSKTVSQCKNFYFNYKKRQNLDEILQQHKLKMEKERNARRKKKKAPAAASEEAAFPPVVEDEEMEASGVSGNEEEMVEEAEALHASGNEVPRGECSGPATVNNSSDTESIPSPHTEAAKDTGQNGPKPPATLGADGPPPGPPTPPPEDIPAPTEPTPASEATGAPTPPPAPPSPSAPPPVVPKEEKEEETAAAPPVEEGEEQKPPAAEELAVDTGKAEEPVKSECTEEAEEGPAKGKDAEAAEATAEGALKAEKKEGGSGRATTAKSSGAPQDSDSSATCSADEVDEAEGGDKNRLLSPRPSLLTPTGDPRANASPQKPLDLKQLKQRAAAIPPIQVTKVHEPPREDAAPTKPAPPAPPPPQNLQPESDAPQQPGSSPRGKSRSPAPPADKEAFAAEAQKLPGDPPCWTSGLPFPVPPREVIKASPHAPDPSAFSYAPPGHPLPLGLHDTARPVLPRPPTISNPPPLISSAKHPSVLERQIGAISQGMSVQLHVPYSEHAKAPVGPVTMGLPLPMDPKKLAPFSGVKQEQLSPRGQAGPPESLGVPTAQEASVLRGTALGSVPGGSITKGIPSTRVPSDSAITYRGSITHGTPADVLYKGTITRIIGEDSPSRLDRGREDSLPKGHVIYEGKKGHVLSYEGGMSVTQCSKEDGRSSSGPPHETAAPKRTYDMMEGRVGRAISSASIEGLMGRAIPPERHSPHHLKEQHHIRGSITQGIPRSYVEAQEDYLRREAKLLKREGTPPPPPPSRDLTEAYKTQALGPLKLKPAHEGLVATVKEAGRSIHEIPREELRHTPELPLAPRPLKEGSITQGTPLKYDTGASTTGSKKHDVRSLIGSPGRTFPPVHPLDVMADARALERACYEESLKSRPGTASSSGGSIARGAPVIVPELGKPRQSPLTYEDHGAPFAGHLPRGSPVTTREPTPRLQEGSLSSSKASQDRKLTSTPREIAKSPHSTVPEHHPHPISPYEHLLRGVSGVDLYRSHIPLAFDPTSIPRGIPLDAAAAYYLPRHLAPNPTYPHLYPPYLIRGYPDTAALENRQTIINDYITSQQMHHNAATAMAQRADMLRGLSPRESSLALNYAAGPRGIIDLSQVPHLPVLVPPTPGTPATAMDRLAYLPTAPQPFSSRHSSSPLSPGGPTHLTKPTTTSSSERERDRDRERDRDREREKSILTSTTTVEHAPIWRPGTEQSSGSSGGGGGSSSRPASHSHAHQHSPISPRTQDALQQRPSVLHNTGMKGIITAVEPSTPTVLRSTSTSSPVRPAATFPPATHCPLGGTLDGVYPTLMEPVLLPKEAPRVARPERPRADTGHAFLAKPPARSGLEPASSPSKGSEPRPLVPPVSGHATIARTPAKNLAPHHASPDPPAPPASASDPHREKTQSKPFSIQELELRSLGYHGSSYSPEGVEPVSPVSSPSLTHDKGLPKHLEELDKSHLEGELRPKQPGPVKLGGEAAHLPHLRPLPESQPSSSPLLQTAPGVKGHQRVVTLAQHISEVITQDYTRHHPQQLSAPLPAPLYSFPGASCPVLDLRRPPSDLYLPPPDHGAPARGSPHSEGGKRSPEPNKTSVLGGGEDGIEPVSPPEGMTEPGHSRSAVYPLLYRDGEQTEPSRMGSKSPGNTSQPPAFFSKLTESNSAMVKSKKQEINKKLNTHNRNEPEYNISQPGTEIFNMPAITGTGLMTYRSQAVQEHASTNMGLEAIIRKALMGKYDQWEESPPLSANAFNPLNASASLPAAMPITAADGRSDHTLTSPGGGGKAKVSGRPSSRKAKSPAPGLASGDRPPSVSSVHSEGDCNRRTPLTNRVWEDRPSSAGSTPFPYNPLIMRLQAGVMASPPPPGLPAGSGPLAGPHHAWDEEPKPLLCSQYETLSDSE
The next assay deals with Nonstructural protein 1 (Influenza A virus, UniProt Q194T2). In kind it is functional, Influenza A virus (A/California/07/2009(H1N1)).
Nonstructural protein 1, sequence (Q194T2 whole entry): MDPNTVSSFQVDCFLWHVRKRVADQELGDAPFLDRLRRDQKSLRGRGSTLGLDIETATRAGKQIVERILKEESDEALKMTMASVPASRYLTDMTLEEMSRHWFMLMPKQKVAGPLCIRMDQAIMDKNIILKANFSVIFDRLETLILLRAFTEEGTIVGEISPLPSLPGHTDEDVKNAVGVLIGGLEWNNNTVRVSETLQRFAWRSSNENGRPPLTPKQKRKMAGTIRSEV
Assay [3] deals with Ras and Rab interactor 1/Tyrosine-protein kinase ABL1 (Homo sapiens, UniProt P00519+Q13671). In kind it is functional.
The subject of assay [4] is HEK293. Kind of assay: optical interference in Abeta FP readout, dose response, artefact control for IDE activator project, biochemical, fluorescence polarization (AID 588442). The format is functional, cell-based. The note with it: Homo sapiens. On the technique in general: Fluorescence polarisation rises when a labelled molecule tumbles more slowly, as on binding a larger partner.

Assay [5] relates to HEK293. Kind of assay: HEK cell cytotoxicity by LDH release, dose response, cytotoxicity control for IDE activator project, fluorescence, HEK cells (AID 588440).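 Further: cytotoxicity by LDH release measuring loss of membrane integrity.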 In kind it is functional, cell-based. Particulars: Homo sapiens.
The target in assay [6] is T1, Insulin-degrading enzyme (Homo sapiens, UniProt P14735).
T1 sequence (P14735 whole entry): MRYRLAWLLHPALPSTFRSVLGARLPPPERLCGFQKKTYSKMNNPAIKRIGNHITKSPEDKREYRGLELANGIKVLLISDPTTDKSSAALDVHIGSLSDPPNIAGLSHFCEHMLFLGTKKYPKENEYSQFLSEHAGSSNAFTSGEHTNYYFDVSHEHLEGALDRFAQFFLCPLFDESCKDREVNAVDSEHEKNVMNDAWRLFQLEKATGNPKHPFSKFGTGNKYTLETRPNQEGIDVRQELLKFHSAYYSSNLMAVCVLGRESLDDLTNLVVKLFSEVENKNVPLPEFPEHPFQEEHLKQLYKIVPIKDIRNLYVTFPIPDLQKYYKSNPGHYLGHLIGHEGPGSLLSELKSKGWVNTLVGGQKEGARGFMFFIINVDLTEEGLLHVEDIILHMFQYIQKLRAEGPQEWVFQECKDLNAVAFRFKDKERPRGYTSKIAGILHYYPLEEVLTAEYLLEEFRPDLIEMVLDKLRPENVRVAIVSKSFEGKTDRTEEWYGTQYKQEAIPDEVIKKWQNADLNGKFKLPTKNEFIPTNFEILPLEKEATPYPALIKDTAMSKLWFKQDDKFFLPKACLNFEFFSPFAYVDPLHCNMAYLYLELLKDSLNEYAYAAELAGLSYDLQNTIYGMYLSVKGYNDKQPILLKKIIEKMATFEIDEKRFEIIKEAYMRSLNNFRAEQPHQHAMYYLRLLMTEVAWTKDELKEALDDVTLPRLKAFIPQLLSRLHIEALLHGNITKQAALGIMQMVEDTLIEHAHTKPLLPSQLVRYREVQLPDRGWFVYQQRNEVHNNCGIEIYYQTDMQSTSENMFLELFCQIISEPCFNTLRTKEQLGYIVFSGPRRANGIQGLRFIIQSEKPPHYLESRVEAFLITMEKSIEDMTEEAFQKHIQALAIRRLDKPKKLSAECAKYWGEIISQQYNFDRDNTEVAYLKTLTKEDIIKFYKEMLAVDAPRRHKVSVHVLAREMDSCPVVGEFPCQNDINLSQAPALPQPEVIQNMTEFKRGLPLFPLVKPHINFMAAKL
Description: activators of recombinant IDE enzyme, dose response, counter-screen for IDE activator project, biochemical, fluorescence polarization (AID 588681). A general note: Counterscreens check selectivity or assay interference.

Assay [7] addresses T1, Insulin-degrading enzyme. Description: activators of endogenous IDE in HEK cells, dose response, cell-based, fluorescence polarization (AID 588439). In kind it is functional.
The nature of a further assay: cells. In kind it is functional, cell-based.
Assay [8] can be described thus: Luminescence Cell-Based Dose Response HTS to Identify Inhibitors of 5'UTR Stem-Loop Driven Prion Protein mRNA Translation in H4 Neuroglioblastoma Cells. [Related pubchem assays: 1827 (Project Summary), 1813 (Primary HTS)]. The format is functional.
Assay [9] in a line: inhibitors of SNCA 5'UTR-driven reporter translation, confirmation, H4 neuroglioma cells, luminescence (AID 1988). The format is functional, cell-based.
The nature of assay [10]: luciferase reporter signal reduction – luminescence, H4-C neuroglioblastoma cells, dose response (AID 2458).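 Further: H4 neuroglioblastoma cells stably carrying a luciferase reporter gene fusion.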 In kind it is functional, cell-based. Background: A reporter such as luciferase makes a cellular process visible.
The nature of assay [11]: inhibitors of SNCA 5'UTR-driven translation, confirmation, luminescence, H4 neuroglioblastoma cells, dose confirmation (AID 2454).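 Further: H4 neuroglioblastoma cells carrying an alpha-synuclein 5'UTR luciferase reporter; potency for inhibition of the luciferase signal.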 The format is functional, cell-based.
The nature of assay [12]: inhibitors of firefly luciferase expression or activity, dose response, H4 neuroglioma cells, luminescence (AID 1990). In kind it is functional, cell-based.
For a further assay, the target named is Cytochrome P450 2C9 (Homo sapiens, UniProt P11712). The note with it: Potency.
Cytochrome P450 2C9, sequence (P11712 whole entry, the tested form may be a part): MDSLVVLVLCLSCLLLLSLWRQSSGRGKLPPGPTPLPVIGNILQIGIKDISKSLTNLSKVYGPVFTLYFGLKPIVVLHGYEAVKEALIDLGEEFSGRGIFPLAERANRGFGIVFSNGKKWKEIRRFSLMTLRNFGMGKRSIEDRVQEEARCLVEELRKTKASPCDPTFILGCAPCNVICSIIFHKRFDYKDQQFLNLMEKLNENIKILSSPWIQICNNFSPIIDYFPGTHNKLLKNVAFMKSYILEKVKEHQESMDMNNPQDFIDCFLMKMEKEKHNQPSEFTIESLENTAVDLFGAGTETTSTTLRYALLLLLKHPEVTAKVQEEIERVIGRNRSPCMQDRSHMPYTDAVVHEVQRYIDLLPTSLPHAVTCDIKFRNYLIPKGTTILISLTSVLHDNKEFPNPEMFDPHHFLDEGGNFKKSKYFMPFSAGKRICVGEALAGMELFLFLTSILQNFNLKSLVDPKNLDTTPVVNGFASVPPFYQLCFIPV
Assay [13] can be described thus: HIV-1 Env-mediated cell fusion inhibitors, dose response, CCR5-tropic Env (AID 2279). The format is functional.
For another assay, the target named is Oxytocin receptor (Homo sapiens, UniProt P30559). Kind of assay: Fluorescence-based cell-based high throughput dose response assay for agonists of the Oxytocin Receptor (OXTR). [Related pubchem assays: 2435 (Primary screen (OXTR agonists in singlicate)), 434991 (Counterscreen (V1R agonists in triplicate)), 2482 (Summary (OXTR agonists)), 434963 (Confirmation screen (OXTR agonists in triplicate))]. In kind it is functional.
Oxytocin receptor, sequence (P30559 whole entry): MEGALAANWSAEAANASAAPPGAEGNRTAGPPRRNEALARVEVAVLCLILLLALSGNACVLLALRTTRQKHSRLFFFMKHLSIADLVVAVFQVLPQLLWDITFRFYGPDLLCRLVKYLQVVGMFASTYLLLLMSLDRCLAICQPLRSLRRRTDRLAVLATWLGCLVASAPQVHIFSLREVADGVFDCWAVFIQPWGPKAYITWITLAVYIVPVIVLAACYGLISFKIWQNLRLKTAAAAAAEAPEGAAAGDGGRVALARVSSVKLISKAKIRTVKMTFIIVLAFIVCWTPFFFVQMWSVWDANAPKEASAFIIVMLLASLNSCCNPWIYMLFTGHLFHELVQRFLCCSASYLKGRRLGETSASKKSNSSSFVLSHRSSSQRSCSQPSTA

Assay [14] is described as follows: Luminescence Cell-Based Dose Retest to Confirm Inhibitors of Cancer Stem Cells. [Related pubchem assays (depositor defined):AID2717, AID2721]. The format is functional. Particulars: Homo sapiens.
Another assay deals with Vasopressin V1a receptor (Homo sapiens, UniProt P37288). Description: Counterscreen for Oxytocin Receptor (OXTR) agonists: Fluorescence-based cell-based high throughput dose response assay to identify agonists of the vasopressin 1 receptor (V1R). [Related pubchem assays: 2435 (Primary screen (OXTR agonists in singlicate)), 434991 (Counterscreen (V1R agonists in triplicate)), 2482 (Summary (OXTR agonists)) …. The format is functional.
Vasopressin V1a receptor, sequence (P37288 whole entry): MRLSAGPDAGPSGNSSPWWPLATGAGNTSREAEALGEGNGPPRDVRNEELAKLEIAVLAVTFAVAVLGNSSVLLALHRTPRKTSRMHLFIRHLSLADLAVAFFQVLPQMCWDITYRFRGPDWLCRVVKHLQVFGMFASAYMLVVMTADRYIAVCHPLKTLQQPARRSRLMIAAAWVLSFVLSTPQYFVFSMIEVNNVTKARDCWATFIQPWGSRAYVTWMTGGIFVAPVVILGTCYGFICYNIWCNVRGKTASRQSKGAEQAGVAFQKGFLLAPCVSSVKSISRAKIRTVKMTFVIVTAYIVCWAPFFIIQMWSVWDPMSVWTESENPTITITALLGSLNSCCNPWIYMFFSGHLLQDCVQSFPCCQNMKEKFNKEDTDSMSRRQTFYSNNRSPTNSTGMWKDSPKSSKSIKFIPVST

Photoreceptor-specific nuclear receptor, sequence (Q9Y5X4 whole entry): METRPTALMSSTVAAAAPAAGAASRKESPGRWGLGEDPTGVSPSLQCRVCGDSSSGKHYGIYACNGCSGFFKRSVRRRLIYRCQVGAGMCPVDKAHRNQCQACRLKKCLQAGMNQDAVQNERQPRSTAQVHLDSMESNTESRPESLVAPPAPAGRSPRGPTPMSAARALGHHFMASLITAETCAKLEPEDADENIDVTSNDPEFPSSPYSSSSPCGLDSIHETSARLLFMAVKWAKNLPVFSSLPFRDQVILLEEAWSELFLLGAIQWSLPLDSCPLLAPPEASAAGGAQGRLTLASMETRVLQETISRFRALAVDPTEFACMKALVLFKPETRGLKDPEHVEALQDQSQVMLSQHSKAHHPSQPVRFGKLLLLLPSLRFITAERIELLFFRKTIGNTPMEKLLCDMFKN

Regarding `C[C@@H]1NC(=O)N[C@@H]1CCCCCC(=O)O`, the IC50 was 0.149 µM (active) in assay [1]; 1.38 µM (active) in assay [2]; 1.57 µM (active) at Nonstructural protein 1; 0.0101 µM (active) in assay [3]; > 89.2 µM (inactive) with HEK293 [5]. The EC50 with HEK293 [4] is 11.9 µM (inactive); on Insulin-degrading enzyme [6] it was 7.41 µM (active); on Insulin-degrading enzyme [7] it was 7.8 µM (active).
Turning to `CC(C)(C)c1ccc(Oc2ccc(N)cn2)cc1` [LIMANTRAFIN], the EC50 in “cells” is 2.75 µM (active); in assay [8], 5.68 µM (active); in assay [9] it was < 0.1 µM (active); in assay [10], 0.803 µM (active); in assay [11], 1.05 µM (active); in [12], < 0.1 µM (active).
In the case of `CC(C)[C@@H](CC(=O)N[C@@H]1CCCC[C@H]1C(=O)N[C@H](CC(=O)N[C@@H](CCC(=O)O)CC(=O)O)Cc1ccccc1)NC(=O)C[C@H](CO)NC(=O)[C@@H]1CNCC[C@H]1N`, the concentration at half-maximal activity (AC50) at Cytochrome P450 2C9 was 31.6 µM (inconclusive).
Consider `O=C(OCC1OC(n2ncc(=O)[nH]c2=O)C(OC(=O)c2ccccc2)C1OC(=O)c1ccccc1)c1ccccc1` (configuration not stated), for which the results for the EC50 in [8], in assay [9] and in [12] were 17.7 µM (active), > 120 µM (not active) and 13.5 µM (active), respectively. For the same compound, the IC50 in [13] is 12.2 µM (active).
`CC1(C)CC[C@@]2(C(=O)O)C(C1)C1=CCC3[C@@]4(C)CC[C@H](O)C(C)(C)C4CC[C@@]3(C)[C@]1(C)C[C@H]2O` (some centres not stated): the EC50 on Oxytocin receptor was 2.67 µM (active); on Vasopressin V1a receptor, 2.33 µM (active). The concentration at half-maximal activity (AC50) in assay [14] is 7.33 µM (active).
